Results reported in patent US9561228B2 (Celgene Avilomics Research, Inc., priority 2013, dated 2017).

Tests used:
Format in all cases: cell-based
[1] = system: HT-29 cells (colorectal adenocarcinoma); assay: Inhibition of cancer cell proliferation, HT-29 (CellTiterGlo, 72 hours); conditions: Homo sapiens
Summary of the method: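 Proliferation over 72 h at 37° C was read by CellTiterGlo luminescence, translated to cell counts with a cell-density standard curve (390–50,000 cells). Compound added as 3-fold dilutions from a 5,000 nM two-fold stock to 3000 seeded HT-29 cells; GI50 from percent inhibition relative to untreated wells.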

[2] = system: A375 cells (malignant melanoma); assay: Inhibition of cancer cell proliferation, A375 (CellTiterGlo, 72 hours); conditions: Homo sapiens, A-375
Summary of the method: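 GI50 derived from % growth inhibition relative to untreated wells, after luminescence (CellTiterGlo, 10 min) was converted to cell counts using a standard curve. Compound given as 3-fold dilutions from a 2× 5,000 nM stock in serum-free DMEM; 3000 A375 cells/well, 72 h culture at 37 °C.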

[3] = system: ERK1/2 phosphorylation of p90RSK in HCT116 cells; assay: Detection of total and phospho-RSK by MSD ELISA (HCT116); conditions: Homo sapiens, HCT-116, read-out: ERK1/ERK2 PRSK HCT116 EC50
Summary of the method: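 ERK1/2 activity read in cells as p90RSK phosphorylation: lysates from HCT116 cells given compound for 2 h at 37° C were captured on MSD plates. Detection used a pSer380 RSK or a total RSK antibody with SulfoTag secondaries.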

Structure (SMILES)	GI50 [1] [nM]	GI50 [2] [nM]	EC50 [3] [nM]
C=CC(=O)Nc1cc(C)ccc1Nc1nc(Nc2cc(NC3CC3)nc(OC)c2)ncc1C(F)(F)F [Compound I-337, N-(2-((2-((2-(cyclopropylamino)-6-methoxypyridin-4-yl)amino)-5-(trifluoromethyl)pyrimidin-4-yl)amino)-5-methylphenyl)acrylamide]	< 100	< 100	< 100
C=CC(=O)Nc1ccccc1Nc1nc(Nc2cc(OC)cc(OC)c2)ncc1C(F)(F)F [Compound I-338, N-(2-((2-((3,5-dimethoxyphenyl)amino)-5-(trifluoromethyl)pyrimidin-4-yl)amino)phenyl)acrylamide]	< 100	< 100	< 100
C=CC(=O)Nc1cc(C)ccc1Nc1nc(Nc2cc(OC)cc(OC)c2)ncc1C(F)(F)F [Compound I-339, N-(2-((2-((3,5-dimethoxyphenyl)amino)-5-(trifluoromethyl)pyrimidin-4-yl)amino)-5-methylphenyl)acrylamide]	< 100	< 100	101 to 500
C=CC(=O)Nc1ccccc1Nc1nc(Nc2cc(OC)ccc2C)ncc1C(F)(F)F [Compound I-340, N-(2-((2-((5-methoxy-2-methylphenyl)amino)-5-(trifluoromethyl)pyrimidin-4-yl)amino)phenyl)acrylamide]	101 to 500	101 to 500	101 to 500
C=CC(=O)Nc1cc(C)ccc1Nc1nc(Nc2cc(OC)nc(N(C)C3CC3)c2)ncc1C(F)(F)F [Compound I-342, N-(2-((2-((2-(cyclopropyl(methyl)amino)-6-methoxypyridin-4-yl)amino)-5-(trifluoromethyl)pyrimidin-4-yl)amino)-5-methylphenyl)acrylamide]	< 100	101 to 500	101 to 500
